Experimental data: ChEMBL document CHEMBL5154881, “Discovery of First-in-Class TAK1-MKK3 Protein-Protein Interaction (PPI) Inhibitor (R)-STU104 for the Treatment of Ulcerative Colitis through Modulating TNF-α Production” (J Med Chem, 2022)
Active and inactive are the calls of the source. The rule behind the calls is not given here.

How the values were obtained:
Mus musculus [1] = experiment: Antiinflammatory activity against IL-10-/- C57BL/6 mouse model of ulcerative colitis assessed as inhibition ratio of TNF-alpha protein expression at 3 mg/kg, IG via gavage and measured after 8 weeks by ELISA relative to control; assay type: functional; parameters: scale not given: the % may be the effect or the level left
Mus musculus [2] = experiment: Anti-ulcerative colitis activity in IL-10-/- C57BL/6 mouse model of ulcerative colitis assessed as colon length recovery ratio at 10 mg/kg, IG via gavage for 8 weeks relative to control; assay type: functional
Mus musculus [3] = experiment: Anti-ulcerative colitis activity in IL-10-/- C57BL/6 mouse model of ulcerative colitis assessed as body weight recovery ratio at 10 mg/kg, IG via gavage for 8 weeks and measured everyday relative to control; assay type: functional
[4] = Bioavailability in 12 hr starved C57 mouse […] measured for 0.083 to 24 hrs post-dose by LC-MS-MS analysis; assay type: ADME, organism-based; conditions: in vivo, time 0.083-24 hrs
Mus musculus [5] = experiment: Antiinflammatory activity against IL-10-/- C57BL/6 mouse model of ulcerative colitis assessed as inhibition ratio of TNF-alpha mRNA expression in colon tissue at 1 mg/kg, IG via gavage and measured after 8 weeks by RT-qPCR analysis relative to control; assay type: functional; parameters: scale not given: the % may be the effect or the level left
Mus musculus [6] = experiment: Anti-ulcerative colitis activity against DSS-induced ulcerative colitis C57BL/6 mouse model assessed as reduction in DAI recovery score ratio at 50 mg/kg, IG via gavage administered for 7 days and measured everyday relative to control; assay type: functional; parameters: scale not given: the % may be the effect or the level left; conditions: time 7 day
Mus musculus [7] = experiment: Anti-ulcerative colitis activity in IL-10-/- C57BL/6 mouse model of ulcerative colitis assessed as histopathological score recovery ratio at 1 mg/kg, IG via gavage for 8 weeks relative to control; assay type: functional
Mus musculus [8] = experiment: Anti-ulcerative colitis activity in DSS-induced C57BL/6 mouse ulcerative colitis model assessed as histopathological score recovery ratio at 1 mg/kg, IG via gavage measured after 7 days by H and E staining method relative to control; assay type: functional; conditions: time 7 day
Mus musculus [9] = experiment: Anti-ulcerative colitis activity in IL-10-/- C57BL/6 mouse ulcerative colitis model assessed as animal survival at 3 to 10 mg/kg, IG via gavage for 8 weeks; assay type: functional, organism-based; conditions: dose 3-10 mg/kg
RAW264.7 [10] = experiment: Inhibition of MKK3-p38-elF4E signaling pathway in mouse RAW264.7 cells assessed as reduction in LPS-induced Mnk1 phosphorylation treated for 1.5 hrs followed by LPS treatment for 1 hr by Western blot analysis; assay type: cell-based; conditions: dose 3.125-12.5 µmol/L, time 2.5 hrs, DDE = dose-dependent effect
Mus musculus [11] = experiment: Antiinflammatory activity against IL-10-/- C57BL/6 mouse model of ulcerative colitis assessed as inhibition ratio of IL-23 protein expression at 1 mg/kg, IG via gavage and measured after 8 weeks by ELISA relative to control; assay type: functional; parameters: scale not given: the % may be the effect or the level left
[12] = Toxicity in C57 mouse assessed as spleen damage at 50 to 500 mg/kg, po administered daily for 14 days; assay type: organism-based; conditions: in vivo, 336 h, dose 50-500 mg/kg, time 14 day
Mus musculus [13] = experiment: Antiinflammatory activity against DSS-induced C57BL/6 mouse model of acute ulcerative colitis assessed as inhibition ratio of IL-1beta mRNA expression in colon tissue at 3 mg/kg, IG via gavage measured after 7 days by RT-qPCR analysis relative to control; assay type: functional; parameters: scale not given: the % may be the effect or the level left; conditions: time 7 day
Mus musculus [14] = experiment: Anti-ulcerative colitis activity in IL-10-/- C57BL/6 mouse model of ulcerative colitis assessed as colon length recovery ratio at 1 mg/kg, IG via gavage for 8 weeks relative to control; assay type: functional
Mus musculus [15] = experiment: Anti-ulcerative colitis activity in DSS-induced C57BL/6 mouse ulcerative colitis model assessed as colon length recovery ratio at 10 mg/kg, IG via gavage measured after 7 days relative to control; assay type: functional; conditions: time 7 day
Mus musculus [16] = experiment: Antiinflammatory activity against IL-10-/- C57BL/6 mouse model of ulcerative colitis assessed as inhibition ratio of IL-23 protein expression at 10 mg/kg, IG via gavage and measured after 8 weeks by ELISA relative to control; assay type: functional; parameters: scale not given: the % may be the effect or the level left
Mus musculus [17] = experiment: Antiinflammatory activity against IL-10-/- C57BL/6 mouse model of acute ulcerative colitis assessed as decrease in serum IL-6 levels administered intragastrically via gavage measured after 8 weeks by ELISA; assay type: functional, organism-based; conditions: dose 3-10 mg/kg, route ig, DDE = dose-dependent effect
Mus musculus [18] = experiment: Anti-ulcerative colitis activity in IL-10-/- C57BL/6 mouse model of ulcerative colitis assessed as histopathological score recovery ratio at 10 mg/kg, IG via gavage for 8 weeks relative to control; assay type: functional
Mus musculus [19] = experiment: Antiinflammatory activity against DSS-induced C57BL/6 mouse model of acute ulcerative colitis assessed as inhibition ratio of IL-1beta protein expression at 1 mg/kg, IG via gavage measured after 7 days by ELISA relative to control; assay type: functional; parameters: scale not given: the % may be the effect or the level left; conditions: time 7 day
Mus musculus [20] = experiment: Anti-ulcerative colitis activity against DSS-induced ulcerative colitis C57BL/6 mouse model assessed as reduction in DAI recovery score ratio at 10 mg/kg, IG via gavage administered for 7 days and measured everyday relative to control; assay type: functional; parameters: scale not given: the % may be the effect or the level left; conditions: time 7 day
Mus musculus [21] = experiment: Inhibition of MKK3-p38 MAPK-elF4E signaling pathway in C57BL/6 mouse model of acute ulcerative colitis assessed as decrease in DSS-induced elF4E phosphorylation in colon tissue administered intragastrically via gavage measured after 7 days by Western blot analysis; conditions: dose 1-50 mg/kg, time 7.0 day, DDE = dose-dependent effect
[22] = Toxicity in C57 mouse assessed as lung damage at 50 to 500 mg/kg, po administered daily for 14 days; assay type: organism-based; conditions: in vivo, 336 h, dose 50-500 mg/kg, time 14 day
Mus musculus [23] = experiment: Antiinflammatory activity against IL-10-/- C57BL/6 mouse model of ulcerative colitis assessed as inhibition ratio of IL-6 protein expression at 10 mg/kg, IG via gavage and measured after 8 weeks by ELISA relative to control; assay type: functional; parameters: scale not given: the % may be the effect or the level left
RAW264.7 [24] = experiment: Inhibition of TAK1-MKK3 protein-protein interaction in LPS-treated mouse RAW264.7 cells assessed as reduction in TAK1 levels at 3.13 to 12.5 umol/L incubated for 30 mins by immunoprecipitation method; assay type: cell-based; conditions: dose 3.13-12.5 µmol/L
Mus musculus [25] = experiment: Anti-ulcerative colitis activity against DSS-induced ulcerative colitis C57BL/6 mouse model assessed as body weight recovery rate at 1 mg/kg, IG via gavage administered for 7 days and measured everyday relative to control; assay type: functional; conditions: time 7 day
Mus musculus [26] = experiment: Antiinflammatory activity against DSS-induced C57BL/6 mouse model of acute ulcerative colitis assessed as inhibition ratio of IL-6 protein expression at 1 mg/kg, IG via gavage measured after 7 days by ELISA relative to control; assay type: functional; parameters: scale not given: the % may be the effect or the level left; conditions: time 7 day
[27] = AUC (0 to t) in 12 hr starved C57 mouse at 5 mg/kg, iv measured for 0.083 to 24 hrs post-dose by LC-MS-MS analysis; assay type: ADME, organism-based; parameters: time lower 0.083 hrs, dose 5 mg/kg, time upper 24 hrs, route iv; conditions: in vivo
Mus musculus [28] = experiment: Antiinflammatory activity against DSS-induced C57BL/6 mouse model of acute ulcerative colitis assessed as inhibition ratio of TNF-alpha mRNA expression in colon tissue at 1 mg/kg, IG via gavage measured after 7 days by RT-qPCR analysis relative to control; assay type: functional; parameters: scale not given: the % may be the effect or the level left; conditions: time 7 day
Mus musculus [29] = experiment: Antiinflammatory activity against DSS-induced C57BL/6 mouse model of acute ulcerative colitis assessed as inhibition ratio of IL-23 protein expression at 1 mg/kg, IG via gavage measured after 7 days by ELISA relative to control; assay type: functional; parameters: scale not given: the % may be the effect or the level left; conditions: time 7 day

`COc1ccc([C@H]2CC(=O)c3cc(OC)cc(OC)c32)cc1` gave an Activity (Mus musculus [1]) of 60.3%, an Activity (Mus musculus [2]) of 41.2% and an Activity (Mus musculus [3]) of 19.4%. It also gave a bioavailability [4] of 33%, an Activity (Mus musculus [5]) of 24.7% and an Activity (Mus musculus [6]) of 22.7%. The Activity (Mus musculus [7]) was 33%, the Activity (Mus musculus [8]) was 25% and the Activity (Mus musculus [9]) was “Active”. The inhibition (RAW264.7 [10]) was “Dde”, the Activity (Mus musculus [11]) was 39.6% and the Activity [12] was “Non-Toxic”. It also gave an Activity (Mus musculus [13]) of 87.2%, an Activity (Mus musculus [14]) of 17.7% and an Activity (Mus musculus [15]) of 57.6%. For the same compound, the Activity (Mus musculus [16]) was 64.4%, the Activity (Mus musculus [17]) was “Dde” and the Activity (Mus musculus [18]) was 56.7%. For the same compound, the Activity (Mus musculus [19]) was 46.9%, the Activity (Mus musculus [20]) was 45% and the inhibition (Mus musculus [21]) was “Dde”. For the same compound, the Activity [22] was “Non-Toxic”, the Activity (Mus musculus [23]) was 57.6% and the inhibition (RAW264.7 [24]) was “Active”. For the same compound, the Activity (Mus musculus [25]) was 22.7%, the Activity (Mus musculus [26]) was 40.4% and the AUC(0-t) [27] was 7250 ng·h/mL. The Activity (Mus musculus [28]) was 68.6% and the Activity (Mus musculus [29]) was 46.2%.
